Assay results: patent US20110311601A1, “ANTIMICROBIAL MEDICAL DEVICES” (priority 2010, published 2011)
Where no end group is shown, it is not given here.

What was measured:
Assay type in all cases: cell-based
[1] = test system: Acinetobacter lwoffii ATCC 15309; assay: micro-dilution assay (MBC, LD90)
Procedure: (§1) The anti-bacterial activity of hβD2 was tested by a micro-dilution assay. Bacteria and fungi were streaked from a glycerol stock onto a Brain Heart Infusion (BHI) agar plate (3.7% w/v BHI Bouillon, 1.5% w/v Agar), grown overnight at 37° C. and 30° C., respectively and subsequently used to inoculate 40 ml of 3.7% w/v BHI Bouillon without any antibiotics in 100 ml flasks. Fresh cells were harvested by centrifugation at 16000 rpm for 10 min and washed twice with 10 mM sodium phosphate buffer, pH 7.2. The optical density was adjusted to 10^4 cells/ml. For anti-bacterial testing hβD2 was incubated in one well of a microtiter plate containing 100 μl of the bacterial suspension. Therefore, ten microlitres of hβD2 solution with a range of final concentrations tested from 0.0125 up to and including 100 mg/l was added to the bacterial suspension and incubated at 37° C. and 30° C., respectively for 2 h before colony forming units were determined. Colony forming units (CFU) were determined after plating 100 μl of a 1:100 dilution of the bacterial suspension on petri dishes with BHI medium and incubating them overnight at 37° C. For every group of the hβD2 added samples and the controls, 5 independent anti-bacterial assays were performed. A control (NC) of bacterial growth was examined for every independent assay. The number of CFU on the control (consisting of a single petri dish) was set to 0% bactericidal activity. The reduction in the CFU resulting from the anti-bacterial activity of hβD2 was related to the absolute CFU of the control within every independent assay. This value, given as a percentage of the bacterial “killing” activity, was used to describe the antibacterial activity. This kind of normalisation of the antibacterial data was performed for every experimental group.
(§2) The antibacterial activity of hβD2 were given either as minimum bactericidal concentration (MBC), i.e., the minimum concentration of hβD2 in μg/ml which is required to kill 99.9% of the bacteria or fungi or as lethal dose (LD90), i.e., the concentration of hβD2 in μg/ml which is lethal for 90% of bacteria or fungi.

[2] = test system: Campylobacter jejuni ATCC 33560; assay: micro-dilution assay (MBC, LD90)
Procedure: as §1, §2

[3] = test system: Candida glabrata ATCC 90030; assay: micro-dilution assay (MBC, LD90)
Procedure: as §1, §2

[4] = test system: Citrobacter freundii BK 3796/00 (wild-type); assay: micro-dilution assay (MBC, LD90)
Procedure: as §1, §2

[5] = test system: Proteus mirabilis UR 1792/03 (wild-type); assay: micro-dilution assay (MBC, LD90)
Procedure: as §1, §2

[6] = test system: Providencia stuartii NCTC 10318; assay: micro-dilution assay (MBC, LD90)
Procedure: as §1, §2

[7] = test system: Streptococcus pyogenes ATCC 12344; assay: micro-dilution assay (MBC, LD90)
Procedure: as §1, §2

[8] = test system: Escherichia coli strain DB3.1; assay: agar diffusion assay (zone of inhibition)
Procedure: Agar diffusion assay. In the agar diffusion assay the microorganisms were exposed immovable to the potential bio-active substance by inclusion in an agar containing medium. The use of a nutrient limited minimal medium led first to a limitation of the development of the bacteria. The test substances were dependent on the application form pipetted into the punched recess in the agar or placed with a test sample into the punched recess in the agar and spread out during incubation time by diffusion into the agar. After incubation the nutrient limitation of the bacteria was revoked. The determination of the bioactivity was performed by measuring the diameter of the raised zone of inhibition surrounding the recess.
Therefore, Escherichia coli strain DB3.1 (Invitrogen, Cat. No. 11782-018) was used. E. coli was streaked from a glycerol stock onto a Brain Heart Infusion (BHI) agar plate (3.7% (w/v) BHI Bouillon, 1.5% (w/v) Agar) and was grown overnight at 37° C. Subsequently one colony was used to inoculate 8 ml of TSB medium (Caso Bouillon 3% (w/v)) without any antibiotics in a culture tube which was then incubated shaking (120 rpm) over night at 37° C. 50 μl of this pre-culture was used to inoculate again 8 ml of TSB medium (Caso Bouillon 3% (w/v)) without any antibiotics in a fresh culture tube which was then incubated shaking (125 rpm) for 3.5 h at 37° C. The OD600 of the bacterial suspension was then 0.500.
The underlay medium (11% (v/v) 0.1 M sodium phosphate buffer pH 7.2, 1% (v/v) TSB-medium, 0.02% (v/v) Tween, 1% (w/v) agarose in distilled water, pH 7.2), a minimal medium, was liquefied using micro waves and cooled to about 47° C. 10 ml underlay medium with 500 μl bacterial suspension were mixed in a 50 ml falcon tube by slight swirling and then was poured into a petri dish. The cooling time was first 15 min at room temperature and then 30 min at 4° C. Afterwards the recesses for test liquids (diameter 3 mm) and test materials (diameter 6 mm), respectively, were punched out from the underlay medium by using a punching-dye. 5 μl test liquid was pipetted per recess and the test materials were laid into the recess or were slid under the underlay medium, respectively. The lid of the plate was closed by parafilm and the plate was incubated over night at 37° C. The next day, the overlay medium (3.4% (w/v) casein peptone, 0.6% (w/v) soy flour peptone, 0.5% (w/v) di-potassium hydrogen phosphate, 1% (w/v) NaCl, 0.5% (w/v) glucose, 1% (w/v) agarose in distilled water) was liquefied using micro waves and cooled to about 47° C. In every Petri dish 10 ml overlay medium were poured on the underlay medium. After cooling for 5 minutes the plate was closed by the lid and incubated at 37° C. for about 2-3 h. For evaluation, the diameter of the raised zones of inhibition surrounding the recesses was measured.
The potential of the chosen biopolymers to release bio-active hβD2 after coating/mixing them with hβD2, was determined by a screening in the diffusion assay (as described in Example 5). The assay allows a correlation between the released amounts of bio-active molecules and the resulting zone of inhibition surrounding the releasing source. A comparison with the effect of directly applied, defined amounts of hβD2 allows an evaluation of the release potential of the test materials.
In the assay films made of 1% hyaluronic acid and 1% alginic acid, gelatin leaves, gelatinized agarose drops of 1% agarose solution and films of the dried drops were used. Additionally three variants of a polylactide matrix (uncoated, coated with collagen, coated with collagen and chondroitin sulphate) and collagen scaffolds were tested.
The samples were prepared as described in example 5 and treated with 10 μg hβD2. For the comparison between the effect of directly applied hβD2 amounts and the effect of hβD2-coated samples a standard series for 0.1, 1, 5 and 10 μg hβD2 was performed. The control was formed by the 0.01% acetic acid. […]

Substance: human β-defensin-2 (GIGDPVTCLKSGAICHPVFCPRRYKQIGTCGLPGTKCCKKP; ends and bridges not checked; cysteine pairing not given here) [hβD2, recombinant hβD2]
- LD 90 = μg/ml 90% killing [1]: 0.39 µg/mL
- MBC = μg/ml 99.9% killing [1]: 0.78 µg/mL
- LD 90 = μg/ml 90% killing [2]: 3.125 µg/mL
- MBC = μg/ml 99.9% killing [2]: 6.25 µg/mL
- LD 90 = μg/ml 90% killing [3]: 50 µg/mL
- MBC = μg/ml 99.9% killing [3]: >100 µg/mL
- LD 90 = μg/ml 90% killing [4]: 3.125 µg/mL
- MBC = μg/ml 99.9% killing [4]: 6.25 µg/mL
- LD 90 = μg/ml 90% killing [5]: 3.125 µg/mL
- MBC = μg/ml 99.9% killing [5]: 12.5 µg/mL
- LD 90 = μg/ml 90% killing [6]: 100 µg/mL
- MBC = μg/ml 99.9% killing [6]: >100 µg/mL
- LD 90 = μg/ml 90% killing [7]: 100 µg/mL
- MBC = μg/ml 99.9% killing [7]: >100 µg/mL
- diameter of zone of inhibition ([8]; 0.1 μg hβD2 directly applied): 6 mm
- diameter of zone of inhibition ([8]; 1 μg hβD2 directly applied): 9 mm
- diameter of zone of inhibition ([8]; 5 μg hβD2 directly applied): 12 mm
- diameter of zone of inhibition ([8]; 10 μg hβD2 directly applied): 15 mm
- formation of a zone of inhibition ([8]; 10 μg hβD2 on alginic acid film): did not exhibit the formation of a zone of inhibition
- formation of a zone of inhibition ([8]; 10 μg hβD2 on hyaluronic acid film): did not exhibit the formation of a zone of inhibition
